Laboratory results as given in US9139532B2, “Pyrazolyl guanidine F1F0-atpase inhibitors and therapeutic uses thereof” (Lycera Corporation, priority 2010, dated 2015).
pEC50, pIC50: −log10 of the molar value. Read-outs that look alike come from different tables or passages of the source.

Legend:
Ramos cells = assay: Cytotoxicity in Ramos cells; type: cell-based; conditions: cytotoxicity in Ramos cells, read-out: Ramos Cell EC50
F1F0-ATPase = molecular target: T1, F1F0-ATPase (Bos taurus, UniProt P13621); assay: Inhibition of F1F0-ATPase activity in synthesizing ATP; type: biochemical; conditions: inhibition of ATP synthesis by F1F0-ATPase; read-out: ATP Syn IC50
T1 construct: from tissue

Structure (SMILES) | pEC50 (Ramos cells; Homo sapiens) | pIC50 (F1F0-ATPase) | pEC50 (Ramos cells)
O=C(/N=C(/Nc1cc(C(F)(F)F)n[nH]1)NC1CCCC1)c1ccc(Cl)c(F)c1 [Compound A-115] | > 5.00 | > 5.00 | –
COCC(C)N/C(=N/C(=O)c1ccc(F)c(F)c1)Nc1cc(C(F)(F)F)n[nH]1 (stereo not drawn) [Compound A-106] | > 5.00 | > 5.00 | –
Cc1cc(N/C(=N\C(=O)c2ccc(F)c(F)c2)NC(C)(C)C)n[nH]1 [Compound A-192] | – | > 5.00 | > 5.00
O=C(/N=C(/NCc1ccc(F)c(Cl)c1)Nc1cc(C(F)F)[nH]n1)c1ccc(Cl)cc1 [Compound A-56] | < 5.00 | > 5.00 | –
COCC(C)NC(=NC(=O)c1cccc(F)c1)Nc1cc(-c2ccc(Cl)cc2)n[nH]1 (stereo not drawn) [Compound A-384] | – | > 5.00 | > 5.00
CC(C)(C)CN/C(=N/C(=O)c1ccc(C(F)(F)F)nc1)Nc1cc(C(F)(F)F)[nH]n1 [Compound A-80] | > 5.00 | > 5.00 | –
CCOCCCN/C(=N/C(=O)c1cccc(F)c1)Nc1cc(-c2ccc(F)cc2)n[nH]1 [Compound A-279] | – | > 5.00 | > 5.00
CCC(C)N/C(=N/C(=O)c1cccc(OC)c1)Nc1cc(-c2ccc(F)cc2)n[nH]1 (stereo not drawn) [Compound A-172] | > 5.00 | > 5.00 | –
N#Cc1cccc(C(=O)/N=C(\Nc2cc(-c3cc(F)cc(F)c3)n[nH]2)NC2CCC2)c1 [Compound A-314] | – | > 5.00 | > 5.00
COc1ccc(C(=O)/N=C(/NCC(C)C)Nc2cc(-c3ccc(F)cc3)[nH]n2)cn1 [Compound A-182] | – | > 5.00 | > 5.00
O=C(N=C(NCC1CCO1)Nc1cc(-c2ccc(Cl)cc2)n[nH]1)c1ccc(F)c(F)c1 (stereo not drawn) [Compound A-223] | > 5.00 | > 5.00 | –
CC(C)(C)NC(=NC(=O)c1ccc(Cl)cc1)Nc1cc(-c2cc(F)cc(F)c2)n[nH]1 [Compound A-232] | > 5.00 | > 5.00 | –
COc1cccc(CN/C(=N/C(=O)c2cccc(OC)c2)Nc2cc(-c3ccc(F)cc3)[nH]n2)c1 [Compound A-394] | – | > 5.00 | > 5.00
CC(C)(C)N/C(=N/C(=O)c1ccc(C(F)(F)F)cc1)Nc1cc(-c2ccccc2O)n[nH]1 [Compound A-563, (Z)—N-((tert-Butylamino)((3-(2-hydroxyphenyl)-1H-pyrazol-5-yl)amino)methylene)-4-(trifluoromethyl)benzamide] | > 5.00 | > 5.00 | –
N#Cc1cccc(C(=O)/N=C(\Nc2cc(-c3ccc(F)cc3)[nH]n2)N[C@@H]2CCOC2)c1 [Compound A-510] | – | > 5.00 | > 5.00
O=C(/N=C(\Nc1cc(-c2cc(F)cc(F)c2)n[nH]1)NC1COC1)c1ccc(F)c(F)c1 [Compound A-197] | – | > 5.00 | > 5.00
O=C(/N=C(/NCc1ccc(Cl)cc1F)Nc1cc(C(F)(F)F)[nH]n1)c1ccc(F)c(F)c1 [Compound A-27] | > 5.00 | > 5.00 | –
O=C(/N=C(/Nc1cc(F)cc(Cl)c1)Nc1cc(-c2ccc(F)cc2)[nH]n1)c1ccc(Cl)c(F)c1 [Compound A-145] | – | > 5.00 | > 5.00
Cc1cc(NC(=NC(=O)c2ccc(Cl)c(F)c2)NC(C)(C)C)[nH]n1 [Compound A-181] | > 5.00 | > 5.00 | –
COCCCN/C(=N/C(=O)c1ccc(F)cc1)Nc1cc(C(F)(F)F)[nH]n1 [Compound A-409] | – | > 5.00 | < 5.00

Structure (SMILES) | pEC50 (Ramos cells; Homo sapiens) | pIC50 (F1F0-ATPase) | pEC50 (Ramos cells)
COC[C@H](C)N/C(=N/C(=O)c1ccc(Cl)c(F)c1)Nc1cc(-c2ccc(Cl)cc2)n[nH]1 [Compound A-380] | – | > 5.00 | > 5.00
CC(C)(C)NC(=NC(=O)c1cc(F)c(F)c(F)c1)Nc1cc(-c2ccc(F)cc2)n[nH]1 [Compound A-403] | > 5.00 | > 5.00 | –
CC(C)NC(=NC(=O)c1cccc(C#N)c1)Nc1cc(-c2ccc(Cl)cc2)n[nH]1 [Compound A-305] | > 5.00 | > 5.00 | –
CC(C)N/C(=N/C(=O)c1ccc(Cl)c(F)c1)Nc1cc(-c2cc(F)cc(F)c2)n[nH]1 [Compound A-359] | – | > 5.00 | > 5.00
O=C(/N=C(/NCc1nccs1)Nc1cc(C(F)(F)F)[nH]n1)c1ccc(F)cc1 [Compound A-411] | – | > 5.00 | < 5.00
CC(C)(C)NC(=NC(=O)c1cccc(C(F)(F)F)c1)Nc1cc(-c2ccc(F)cc2)n[nH]1 [Compound A-448] | > 5.00 | > 5.00 | –
COc1ccc(-c2cc(N/C(=N\C(=O)c3ccc(Cl)c(F)c3)Nc3cc(F)cc(Cl)c3)n[nH]2)cc1 [Compound A-148] | – | < 5.00 | < 5.00
O=C(/N=C(\Nc1cc(-c2cc(F)cc(Cl)c2)n[nH]1)NC1CCC1)c1ccc(F)c(F)c1 [Compound A-284] | – | > 5.00 | > 5.00
CC(C)NC(=NC(=O)c1ccc(F)cc1)Nc1cc(-c2ccc(Cl)cc2)n[nH]1 [Compound A-255] | > 5.00 | > 5.00 | –
O=C(/N=C(/Nc1cc(F)cc(Cl)c1)Nc1cc(-c2ccc(Cl)cc2)n[nH]1)c1ccc(C(F)(F)F)cc1 [Compound A-447] | – | > 5.00 | < 5.00
CC(C)N/C(=N/C(=O)c1ccc(Cl)cc1)Nc1cc(C(F)(F)F)n[nH]1 [Compound A-107] | > 5.00 | > 5.00 | –
O=C(N=C(NCC1CCO1)Nc1cc(-c2ccc(F)cc2)n[nH]1)c1ccc(Cl)c(F)c1 (stereo not drawn) [Compound A-215] | < 5.00 | < 5.00 | –
O=C(N=C(NCc1ccc(F)cc1Cl)Nc1cc(-c2ccc(F)cc2)n[nH]1)c1ccc(F)cc1 [Compound A-460] | > 5.00 | > 5.00 | –
O=C(N=C(Nc1cc(C(F)(F)F)n[nH]1)N1CCCC1)c1ccc(C(F)(F)F)cc1 [Compound A-532] | < 5.00 | > 5.00 | –
CCc1cc(C(=O)/N=C(\Nc2cc(-c3ccc(F)cc3)n[nH]2)NC(C)CC)ccn1 (stereo not drawn) [Compound A-174] | > 5.00 | > 5.00 | –
O=C(/N=C(/NCc1ccc(F)cc1Cl)Nc1cc(-c2ccc(F)cc2)n[nH]1)c1cccc(C(F)(F)F)c1 [Compound A-449] | – | > 5.00 | > 5.00
C[C@@H](N/C(=N\C(=O)c1ccc(F)c(F)c1)Nc1cc(C(F)(F)F)n[nH]1)C1CCCCC1 [Compound A-102] | > 5.00 | > 5.00 | –
CC(C)NC(=NC(=O)c1cccc(F)c1)Nc1cc(-c2cc(F)cc(F)c2)n[nH]1 [Compound A-370] | > 5.00 | > 5.00 | –
CC(C)(C)CN/C(=N/C(=O)c1ccc(F)c(F)c1)Nc1cc(C(F)(F)F)n[nH]1 [Compound A-43] | > 5.00 | > 5.00 | –
COCC(C)N/C(=N/C(=O)c1ccc(Cl)cc1)Nc1cc(C(F)(F)F)n[nH]1 (stereo not drawn) [Compound A-111] | > 5.00 | > 5.00 | –

Structure (SMILES) | pEC50 (Ramos cells; Homo sapiens) | pIC50 (F1F0-ATPase) | pEC50 (Ramos cells)
Cc1cc(C(=O)/N=C(\Nc2cc(-c3ccc(F)cc3)[nH]n2)N[C@@H](C)CO)ccc1F [Compound A-405] | – | > 5.00 | > 5.00
O=C(/N=C(\Nc1cc(-c2ccc(F)cc2)[nH]n1)NC1CC1)c1ccc(F)cc1 [Compound A-193] | – | > 5.00 | < 5.00
CC(N/C(=N/C(=O)c1ccc(C(F)(F)F)cc1)Nc1cc(C(F)(F)F)[nH]n1)c1ccc(Cl)cc1 (stereo not drawn) [Compound A-23] | > 5.00 | > 5.00 | –
O=C(/N=C(/NCC1CCCO1)Nc1cc(C(F)(F)F)[nH]n1)c1ccc(F)cc1 (stereo not drawn) [Compound A-413] | – | > 5.00 | < 5.00
O=C(/N=C(\Nc1cc(-c2ccc(Cl)cc2)n[nH]1)NC1CCC1)c1ccc(C(F)(F)F)cc1 [Compound A-236] | – | > 5.00 | > 5.00
O=C(/N=C(/NCc1ccc(F)cc1Cl)Nc1cc(-c2cccc(Cl)c2)n[nH]1)c1ccc(C(F)(F)F)cc1 [Compound A-444] | – | > 5.00 | < 5.00
CC(C)CN/C(=N/C(=O)c1ccc(F)c(F)c1)Nc1cc(-c2ccc(F)cc2)n[nH]1 [Compound A-261] | – | > 5.00 | > 5.00
CC(C)CN/C(=N/C(=O)c1cccc(F)c1)Nc1cc(-c2ccc(F)cc2)n[nH]1 [Compound A-257] | – | > 5.00 | > 5.00
CC1(CNC(=NC(=O)c2ccc(F)c(F)c2)Nc2cc(-c3ccc(Cl)cc3)n[nH]2)CCCO1 (stereo not drawn) [Compound A-211] | < 5.00 | > 5.00 | –
CC(C)N/C(=N/C(=O)c1ccc(Cl)cc1)Nc1cc(-c2ccc(F)cc2)n[nH]1 [Compound A-250] | – | > 5.00 | > 5.00
O=C(N=C(Nc1cc(-c2ccc(Cl)cc2)n[nH]1)NC1CCCC1)c1ccc(Cl)c(F)c1 [Compound A-382] | > 5.00 | > 5.00 | –
O=C(/N=C(/Nc1cc(F)cc(Cl)c1)Nc1cc(-c2cccs2)[nH]n1)c1ccc(Cl)c(F)c1 [Compound A-144] | – | > 5.00 | > 5.00
COc1ccc(C(=O)N=C(Nc2cc(-c3ccc(F)cc3)n[nH]2)NC2CCCC2)cc1 [Compound A-518] | > 5.00 | > 5.00 | –
O=C(/N=C(\Nc1cc(-c2cc(F)cc(F)c2)n[nH]1)NC1CCC1)c1ccc(Cl)c(F)c1 [Compound A-347] | – | > 5.00 | > 5.00
CC1(CNC(=NC(=O)c2ccc(Cl)c(F)c2)Nc2cc(-c3ccc(F)cc3)n[nH]2)CCCO1 (stereo not drawn) [Compound A-210] | > 5.00 | > 5.00 | –
COCC(C)NC(=NC(=O)c1ccc(Cl)cc1)Nc1cc(-c2cc(F)cc(F)c2)n[nH]1 (stereo not drawn) [Compound A-228] | – | > 5.00 | < 5.00
Cc1ccc(C(=O)/N=C(\Nc2cc(C(F)(F)F)[nH]n2)NC2CCCC2)cc1F [Compound A-546] | – | > 5.00 | > 5.00
Cc1csc(CN/C(=N/C(=O)c2ccc(F)cc2)Nc2cc(C(F)(F)F)[nH]n2)n1 [Compound A-416] | – | > 5.00 | < 5.00
CCOCCCN/C(=N/C(=O)c1ccc(F)c(F)c1)Nc1cc(-c2ccc(Cl)cc2)n[nH]1 [Compound A-277] | – | > 5.00 | < 5.00
CCC(C)NC(=NC(=O)c1ccc(F)c(F)c1)Nc1cc(-c2cc(F)cc(Cl)c2)n[nH]1 (stereo not drawn) [Compound A-285] | > 5.00 | > 5.00 | –
